Test results: publication PMC9499365, “Stereoselective Synthesis and Application of Gibberellic Acid-Derived Aminodiols” (International Journal of Molecular Sciences, 2022)

What was measured:
[1] = system: SiHa cells (cervical cancer); assay: MTT antiproliferative assay, SiHa; format: cell-based, human; details: Homo sapiens, 72 h, read-out: Growth inhibition (%) ± SEM
Method: (§1) The in vitro antiproliferative activities of the synthesized aminodiols 4–38 against a panel of different human cancer cell lines of gynecological origin, including cervical (SiHA and HeLa), breast (MCF7 and MDA-MB-231), and ovary (A2780) cancers were assayed by the MTT method. […] Cisplatin, a clinically applied anticancer agent, was used as a reference compound and the results are summarized in Figure 3 and Table S1 in Supporting Information. […] On the other hand, none of the prepared azole derivatives exerted relevant activity.
(§2) The growth-inhibitory effects of the gibberellic acid-based aminodiol derivatives were determined by a standard MTT (3-(4,5-dimethylthiazol-2-yl)-2,5-diphenyltetrazolium bromide) assay on a panel containing five cell lines, including Hela and Siha (cervical cancers); MDA-MB-231 and MCF-7 (breast cancers); and A2780 ovarian cancer cells. The most promising agents were additionally tested against NIH/3T3 mouse embryo fibroblast cells. All cell lines were purchased from the European Collection of Cell Cultures (Salisbury, UK) except SiHa, which was obtained from the American Tissue Culture Collection (Manassas, VA, USA). The cells were maintained in minimal essential medium supplemented with 10% fetal bovine serum, 1% non-essential amino acids, and 1% penicillin-streptomycin at 37 °C in a humidified atmosphere containing 5% CO2. All media and supplements were obtained from Lonza Group Ltd., (Basel, Switzerland). Cancer cells were seeded into 96-well plates (5000 cells/well), after an overnight incubation the test compound was added in 2 different concentrations (10 µM and 30 µM) and incubated for another 72 h under cell-culturing conditions. Then, 20 μL of 5 mg/mL MTT solution was added to each well and incubated for a further 4 h. The medium was removed, and the precipitated formazan crystals were dissolved in DMSO during 60 min of shaking at 37 °C. As the final step, the absorbance was measured at 545 nm by using a microplate reader (SPECTROStar Nano, BMG Labtech, Offenburg, Germany). Untreated cells were included as controls. […] These agents were additionally tested against NIH/3T3 fibroblasts to obtain results about their cancer selectivity. Two independent experiments were performed with five wells for each condition. Cisplatin (Ebewe GmbH, Unterach, Austria), a clinically used anticancer agent, was used as a positive control. Calculations were performed utilizing the GraphPad Prism 5.01 software (GraphPad Software Inc., San Diego, CA, USA).

[2] = system: MDA-MB-231 cells (breast cancer); assay: MTT antiproliferative assay, MDA-MB-231; format: cell-based, human; details: Homo sapiens, 72 h, read-out: Growth inhibition (%) ± SEM; for inhibition at 10 µM: MDA-MB-231, 10 μM; for inhibition at 30 µM: MDA-MB-231, 30 μM
Method: as §1, §2

[3] = system: HeLa cells (cervical cancer); assay: MTT antiproliferative assay, HeLa; format: cell-based, human; details: Homo sapiens, 72 h, read-out: Growth inhibition (%) ± SEM
Method: as §1, §2

[4] = system: A2780 ovarian cancer cells; assay: MTT antiproliferative assay, A2780; format: cell-based, human; details: Homo sapiens, 72 h, read-out: Growth inhibition (%) ± SEM; for inhibition at 10 µM: A2780, 10 μM; for inhibition at 30 µM: A2780, 30 μM
Method: as §1, §2

Structure (SMILES)	melting point [°C]	inhibition at 10 µM [1] [%]	inhibition at 30 µM [1] [%]	inhibition at 10 µM [2] [%]	inhibition at 30 µM [2] [%]	inhibition at 10 µM [3] [%]	inhibition at 30 µM [3] [%]	inhibition at 10 µM [4] [%]	inhibition at 30 µM [4] [%]
CCOC(=O)[C@H]1c2c(C)cccc2[C@H]2CC[C@]3(O)C[C@@]21C[C@]3(O)CNCc1ccccc1 [Compound 4, Ethyl (4bS,7S,8S,9aR,10R)-8-((benzylamino)methyl)-7,8-dihydroxy-1-methyl-4b,6,7,8,9,10-hexahydro-5H-7,9a-methanobenzo[a]azulene-10-carboxylate]	97 to 99	23.3 ± 0.63	57 ± 1.16	< 20	31.6 ± 1.49	26.9 ± 1.55	25.9 ± 3.2	< 20	49.9 ± 1.76
CCOC(=O)[C@H]1c2c(C)cccc2[C@H]2CC[C@]3(O)C[C@@]21C[C@]3(O)CN[C@@H](C)c1ccccc1 [Compound 5, Ethyl (4bS,7S,8S,9aR,10R)-7,8-dihydroxy-1-methyl-8-((((S)-1-phenylethyl)amino)methyl)-4b,6,7,8,9,10-hexahydro-5H-7,9a-methanobenzo[a]azulene-10 carboxylate]		< 20	48.3 ± 4.04	< 20	64.9 ± 1.91	22.3 ± 5.01	51 ± 9.48	30.42 ± 0.22	51.6 ± 2.69
CCOC(=O)[C@H]1c2c(C)cccc2[C@H]2CC[C@]3(O)C[C@@]21C[C@]3(O)CN[C@H](C)c1ccccc1 [Compound 6, Ethyl (4bS,7S,8S,9aR,10R)-7,8-dihydroxy-1-methyl-8-((((R)-1-phenylethyl)amino)methyl)-4b,6,7,8,9,10-hexahydro-5H-7,9a-methanobenzo[a]azulene-10-carboxylate]	104 to 105	< 20	65.9 ± 2.48	< 20	85.1 ± 1.38	21.4 ± 1.7	63.1 ± 1.81	25.3 ± 0.27	61.9 ± 1.25
CCOC(=O)[C@H]1c2c(C)cccc2[C@H]2CC[C@]3(O)C[C@@]21C[C@]3(O)CN[C@H](CC)c1ccccc1 [Compound 7, Ethyl (4bS,7S,8S,9aR,10R)-7,8-dihydroxy-1-methyl-8-((((R)-1-phenylpropyl)amino)methyl)-4b,6,7,8,9,10-hexahydro-5H-7,9a-methanobenzo[a]azulene-10-carboxylate]	55 to 57	28.9 ± 1.16	94.3 ± 1.48	< 20	70.38 ± 0.07	< 20	45 ± 0.97	< 20	65 ± 2.44
CCOC(=O)[C@H]1c2c(C)cccc2[C@H]2CC[C@]3(O)C[C@@]21C[C@]3(O)CN[C@@H](CC)c1ccccc1 [Compound 8, Ethyl (4bS,7S,8S,9aR,10R)-7,8-dihydroxy-1-methyl-8-((((S)-1-phenylpropyl)amino)methyl)-4b,6,7,8,9,10-hexahydro-5H-7,9a-methanobenzo[a]azulene-10-carboxylate]	114 to 115	29.7 ± 1.54	98.38 ± 0.44	< 20	97.52 ± 0.67	27.5 ± 0.41	98.05 ± 0.07	39.5 ± 1.27	96.38 ± 0.13
CCOC(=O)[C@H]1c2c(C)cccc2[C@H]2CC[C@]3(O)C[C@@]21C[C@]3(O)CNCc1ccc(F)cc1 [Compound 9, Ethyl (4bS,7S,8S,9aR,10R)-8-(((4-fluorobenzyl)amino)methyl)-7,8-dihydroxy-1-methyl-4b,6,7,8,9,10-hexahydro-5H-7,9a-methanobenzo[a]azulene-10-carboxylate]	253 to 254	26.6 ± 1.02	53.6 ± 1.92	< 20	< 20	< 20	30.6 ± 4.19	< 20	45.8 ± 1.62
CCOC(=O)[C@H]1c2c(C)cccc2[C@H]2CC[C@]3(O)C[C@@]21C[C@]3(O)CN[C@@H](C)c1ccc(F)cc1 [Compound 10, Ethyl (4bS,7S,8S,9aR,10R)-8-((((S)-1-(4-fluorophenyl)ethyl)amino)methyl)-7,8-dihydroxy-1-methyl-4b,6,7,8,9,10-hexahydro-5H-7,9a-methanobenzo[a]azulene-10-carboxylate]	84 to 86	39.1 ± 1.82	97.08 ± 0.08	31.2 ± 0.77	94.5 ± 1.05	38.5 ± 2.02	97.93 ± 0.11	22.2 ± 1.93	96.46 ± 0.76
CCOC(=O)[C@H]1c2c(C)cccc2[C@H]2CC[C@]3(O)C[C@@]21C[C@]3(O)CNC(C)C [Compound 19, Ethyl (4bS,7S,8S,9aR,10R)-7,8-dihydroxy-8-((isopropylamino)methyl)-1-methyl-4b,6,7,8,9,10-hexahydro-5H-7,9a-methanobenzo[a]azulene-10-carboxylate]	102 to 103								
C#CCNC[C@@]1(O)C[C@]23C[C@@]1(O)CC[C@@H]2c1cccc(C)c1[C@@H]3C(=O)OCC [Compound 20, Ethyl (4bS,7S,8S,9aR,10R)-7,8-dihydroxy-1-methyl-8-((prop-2-yn-1-ylamino)methyl)-4b,6,7,8,9,10-hexahydro-5H-7,9a-methanobenzo[a]azulene-10-carboxylate]	111 to 112								
CCOC(=O)[C@H]1c2c(C)cccc2[C@H]2CC[C@]3(O)C[C@@]21C[C@]3(O)CN1CCCCC1 [Compound 21, Ethyl (4bS,7S,8S,9aR,10R)-7,8-dihydroxy-1-methyl-8-(piperidin-1-ylmethyl)-4b,6,7,8,9,10-hexahydro-5H-7,9a-methanobenzo[a]azulene-10-carboxylate]	84 to 86								
CCOC(=O)[C@H]1c2c(C)cccc2[C@H]2CC[C@]3(O)C[C@@]21C[C@]3(O)CN1CCN(C)CC1 [Compound 22, Ethyl (4bS,7S,8S,9aR,10R)-7,8-dihydroxy-1-methyl-8-((4-methylpiperazin-1-yl)methyl)-4b,6,7,8,9,10-hexahydro-5H-7,9a-methanobenzo[a]azulene-10-carboxylate]	42 to 45								
CCOC(=O)[C@H]1c2c(C)cccc2[C@H]2CC[C@]3(O)C[C@@]21C[C@]3(O)Cn1cncn1 [Compound 28, Ethyl (4bS,7S,8S,9aR,10R)-8-((1H-1,2,4-triazol-1-yl)methyl)-7,8-dihydroxy-1-methyl-4b,6,7,8,9,10-hexahydro-5H-7,9a-methanobenzo[a]azulene-10-carboxylate]	87 to 89								
CCOC(=O)[C@H]1c2c(C)cccc2[C@H]2CC[C@]3(O)C[C@@]21C[C@]3(O)Cn1ccnn1 [Compound 29, Ethyl (4bS,7S,8S,9aR,10R)-8-((1H-1,2,3-triazol-1-yl)methyl)-7,8-dihydroxy-1-methyl-4b,6,7,8,9,10-hexahydro-5H-7,9a-methanobenzo[a]azulene-10-carboxylate]	90 to 92								
CCOC(=O)[C@@H]1c2c(C)cccc2C2CC[C@]3(O)C[C@@]21C[C@]3(O)CN[C@@H](C)c1cccc2ccccc12 (stereo partly drawn) [Compound 36, Ethyl (7S,8S,9aR,10S)-7,8-dihydroxy-1-methyl-8-((((S)-1-(naphthalen-1-yl)ethyl)amino)methyl)-4b,6,7,8,9,10-hexahydro-5H-7,9a-methanobenzo[a]azulene-10-carboxylate]		31.4 ± 1.21	97.69 ± 0.58	46.9 ± 1.05	95.53 ± 0.83	31.1 ± 2.01	95.4 ± 2.87	46.7 ± 1.46	94.81 ± 0.11
CCOC(=O)[C@@H]1c2c(C)cccc2C2CC[C@]3(O)C[C@@]21C[C@]3(O)CN[C@H](C)c1cccc2ccccc12 (stereo partly drawn) [Compound 37, Ethyl (7S,8S,9aR,10S)-7,8-dihydroxy-1-methyl-8-((((R)-1-(naphthalen-1-yl)ethyl)amino)methyl)-4b,6,7,8,9,10-hexahydro-5H-7,9a-methanobenzo[a]azulene-10-carboxylate]		34.5 ± 1.89	97.58 ± 0.47	< 20	96.64 ± 0.17	35.8 ± 0.42	97.35 ± 0.69	35.9 ± 0.89	96 ± 0.99
